Assay results taken from US20220282217A1, “COMPOSITIONS AND METHODS FOR PREPARING T CELL COMPOSITIONS AND USES THEREOF” (priority 2019, published 2022).
Where two headings read alike, the source gives them in different places. Where a SMILES comes first, the peptide text is derived from it.

Assays:
HLA-A24.02 = assay: Class I MHC peptide binding affinity (displacement of radiolabeled reference peptide); parameters: species or system human; settings: allele A24.02; read-out: Observed Affinity (IC50; (nM))
HLA-A02.01 [1] = biological target: HLA-A02.01 (Homo sapiens, UniProt P04439, D140Y/D185E/D98H/E176V/E277Q/G131W/G231S/I119V/I121R/I166T/I218V/L300P/L318F/N151K/N90K/P208A/P217A/Q86G/Q94H/R138H/R169H/T345S); assay: as above
How it was run: (§1)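 Steps: form MHCI complexes carrying labeled reference peptide; add competitor peptides at graded doses; incubate 2 days; separate complex-bound from free label by size-exclusion chromatography and count what remains bound.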

HLA-A02.01 [2] = biological target: T1, HLA-A02.01 (Homo sapiens, UniProt P04439, D140Y/D185E/D98H/E176V/E277Q/G131W/G231S/I119V/I121R/I166T/I218V/N151K/N90K/P208A/P217A/Q86G/Q94H/R138H/R169H); assay: Class I MHC peptide binding stability (pMHC-I dissociation, 125I-labeled light chain); settings: for Stability (T1/2 (h)): allele A02.01
T1 construct: made in house; host or cells: E. coli

HLA-B07.02 = HLA-B07.02 (Homo sapiens, UniProt P01889); assay: Class I MHC peptide binding affinity (displacement of radiolabeled reference peptide)
HLA-A01.01 = HLA-A01.01 (Homo sapiens, UniProt P04439, A114D/A174V/A182V/D101N/D185E/E176A/E190D/L180R/Q94H/R68K/S129P/T187R/V100A/V91M/W191G); assay: as above; settings: allele A01.01, (nM))
How it was run: as §1

[3] = allele A02.01, read-out: Observed Affinity (IC50, (nM))
[4] = Allele B07.02, read-out: Observed Affinity (IC50, (nM))

Row | IC50 (HLA-B07.02; [4]) [nM] | SMILES | IC50 (HLA-A02.01 [1]; [3]) [nM] | Stability (T1/2 (h)) (HLA-A02.01 [2]) [h] | also measured
1 | – | CSCC[C@H](NC(=O)[C@H](CC(C)C)NC(=O)[C@H](CO)NC(=O)[C@H](CC(C)C)NC(=O)[C@@H]1CCCN1C(=O)[C@H](CCC(N)=O)NC(=O)[C@H](CCSC)NC(=O)[C@H](CCC(N)=O)NC(=O)[C@@H](N)Cc1ccccc1)C(=O)O | 553 | 0.3 | IC50 (HLA-A24.02): 14600 nM
2 | – | CC[C@H](C)[C@H](NC(=O)[C@H](CO)NC(=O)[C@H](Cc1c[nH]c2ccccc12)NC(=O)[C@H](Cc1c[nH]cn1)NC(=O)[C@H](C)NC(=O)[C@@H]1CCCN1C(=O)[C@H](CCSC)NC(=O)[C@H](CC(C)C)NC(=O)[C@H](CO)NC(=O)[C@@H](N)CC(C)C)C(=O)O | 164 | 0.4 | IC50 (HLA-A24.02): 12400 nM
3 | 12.5 | CC[C@H](C)[C@H](NC(=O)[C@H](CC(N)=O)NC(=O)[C@@H](NC(=O)[C@H](CC(=O)O)NC(=O)[C@H](CCCCN)NC(=O)[C@@H]1CCCN1C(=O)[C@@H](N)CCSC)C(C)C)C(=O)N[C@@H](CCC(N)=O)C(=O)N[C@H](C(=O)O)C(C)C | – | – | –
4 | – | CSCC[C@H](NC(=O)[C@H](CC(C)C)NC(=O)[C@H](CCC(N)=O)NC(=O)[C@@H](N)CCSC)C(=O)N1CCC[C@H]1C(=O)N[C@@H](Cc1ccccc1)C(=O)NCC(=O)N[C@@H](CS)C(=O)N[C@@H](CC(C)C)C(=O)O | 166 | 0.4 | Kd (HLA-A02.01 [1]; EGFR T790M peptides, HLA allele A02.01, read-out: Affinity): 116 nM; Stability (half-life (hr.)) (HLA-A02.01 [2]; EGFR T790M peptides, HLA allele A02.01): 22.1 min; Kd (HLA-B07.02; EGFR T790M peptides, HLA allele B07.02): 1590 nM
5 | – | CSCC[C@H](NC(=O)[C@H](CCC(=O)O)NC(=O)[C@H](CCCNC(=N)N)NC(=O)[C@H](CC(C)C)NC(=O)[C@H](Cc1ccc(O)cc1)NC(=O)[C@H](CC(N)=O)NC(=O)[C@H](CC(C)C)NC(=O)[C@H](CC(C)C)NC(=O)[C@@H](N)CO)C(=O)O | 87 | 3 | IC50 (HLA-A02.01 [1]; BTK C481S peptide, HLA Allele A02.01, read-out: Affinity): 67.7 nM; Stability (half-life (hr.)) (HLA-A02.01 [2]; BTK C481S peptide, HLA Allele A02.01): 182.6 min; IC50 (HLA-B07.02; BTK C481S peptide, HLA Allele B07.02, read-out: Affinity): 866 nM
6 | – | CC(C)[C@H](NC(=O)[C@H](C)NC(=O)[C@@H]1CCCN1C(=O)[C@@H](NC(=O)[C@H](CCCNC(=N)N)NC(=O)[C@H](C)NC(=O)[C@@H]1CCCN1C(=O)[C@@H]1CCCN1C(=O)CN)C(C)C)C(=O)O (H-GPPARVPAV-OH; N-terminus and C-terminus assumed) | – | – | IC50 (HLA-B07.02): 221 nM
7 | 48.6 | C[C@H](NC(=O)[C@H](C)NC(=O)[C@H](CCCNC(=N)N)NC(=O)[C@@H]1CCCN1C(=O)[C@@H]1CCCN1C(=O)[C@H](CCCNC(=N)N)NC(=O)[C@@H]1CCCN1C(=O)[C@@H]1CCCN1C(=O)CN)C(=O)N[C@@H](CS)C(=O)O (H-GPPRPPRAAC-OH; N-terminus and C-terminus assumed) | – | – | –
8 | – | CC(C)[C@H](NC(=O)[C@H](CCC(=O)O)NC(=O)[C@H](CC(N)=O)NC(=O)[C@H](CO)NC(=O)CN)C(=O)N[C@H](C(=O)N[C@H](C(=O)N[C@@H](CCCNC(=N)N)C(=O)N[C@@H](Cc1ccc(O)cc1)C(=O)O)[C@@H](C)O)[C@@H](C)O (H-GSNEVTTRY-OH; N-terminus and C-terminus assumed) | – | – | IC50 (HLA-A01.01; read-out: Observed Affinity (IC50): 606 nM
9 | – | CC(C)C[C@H](NC(=O)[C@@H](NC(=O)[C@H](CO)NC(=O)[C@@H]1CCCN1C(=O)[C@H](CC(C)C)NC(=O)[C@H](Cc1ccccc1)NC(=O)[C@@H](NC(=O)[C@H](Cc1ccc(O)cc1)NC(=O)[C@@H](NC(=O)CN)C(C)C)[C@@H](C)O)[C@@H](C)O)C(=O)O (H-GVYTFLPSTL-OH; N-terminus and C-terminus assumed) | 1200 | 0.4 | IC50 (HLA-A24.02): 7700 nM
10 | – | CC[C@H](C)[C@H](N)C(=O)N[C@@H](CC(C)C)C(=O)N[C@@H](CC(=O)O)C(=O)N[C@H](C(=O)N[C@@H](C)C(=O)NCC(=O)N[C@@H](Cc1c[nH]cn1)C(=O)N[C@@H](CCC(=O)O)C(=O)N[C@@H](CCC(=O)O)C(=O)N[C@@H](Cc1ccc(O)cc1)C(=O)O)[C@@H](C)O (H-ILDTAGHEEY-OH; N-terminus and C-terminus assumed) | – | – | IC50 (HLA-A01.01; Observed Affinity (IC50): 64.2 nM
11 | – | CC[C@H](C)[C@H](N)C(=O)N[C@@H](CC(C)C)C(=O)N[C@@H](CC(=O)O)C(=O)N[C@H](C(=O)N[C@@H](C)C(=O)NCC(=O)N[C@@H](CC(C)C)C(=O)N[C@@H](CCC(=O)O)C(=O)N[C@@H](CCC(=O)O)C(=O)N[C@@H](Cc1ccc(O)cc1)C(=O)O)[C@@H](C)O (H-ILDTAGLEEY-OH; N-terminus and C-terminus assumed) | – | – | IC50 (HLA-A01.01; Observed Affinity (IC50): 8.6 nM
12 | 78 | CC(C)C[C@H](NC(=O)[C@H](CCC(N)=O)NC(=O)[C@H](CC(C)C)NC(=O)[C@H](Cc1c[nH]cn1)NC(=O)[C@H](CC(N)=O)NC(=O)[C@H](CCC(N)=O)NC(=O)[C@H](CCCNC(=N)N)NC(=O)[C@H](CO)NC(=O)[C@@H](N)CCCCN)C(=O)O (H-KSRQNHLQL-OH; N-terminus and C-terminus assumed) | – | – | –
13 | – | CC[C@H](C)[C@H](NC(=O)[C@@H](NC(=O)[C@@H](NC(=O)[C@H](CC(C)C)NC(=O)[C@@H](NC(=O)[C@@H]1CCCN1C(=O)[C@H](CCCNC(=N)N)NC(=O)[C@H](Cc1c[nH]c2ccccc12)NC(=O)[C@H](CC(N)=O)NC(=O)[C@@H](N)CCSC)[C@@H](C)CC)[C@@H](C)O)[C@@H](C)CC)C(=O)O (H-MNWRPILTII-OH; N-terminus and C-terminus assumed) | 1030 | 0.4 | IC50 (HLA-A24.02): 44900 nM
14 | 32.8 | C[C@H](NC(=O)[C@H](C)NC(=O)[C@H](CCCNC(=N)N)NC(=O)[C@@H]1CCCN1C(=O)[C@@H]1CCCN1C(=O)[C@H](CCCNC(=N)N)NC(=O)[C@@H]1CCCN1C(=O)[C@@H]1CCCN1)C(=O)N[C@@H](CS)C(=O)O (H-PPRPPRAAC-OH; N-terminus and C-terminus assumed) | – | – | –
15 | 109 | CC(C)C[C@H](NC(=O)[C@@H]1CCCN1C(=O)[C@@H]1CCCN1C(=O)[C@@H](NC(=O)[C@@H](NC(=O)[C@H](Cc1c[nH]c2ccccc12)NC(=O)[C@H](CC(C)C)NC(=O)[C@@H](NC(=O)[C@@H]1CCCN1C(=O)[C@@H](N)CCC(N)=O)C(C)C)[C@@H](C)O)[C@@H](C)O)C(=O)O (H-QPVLWTTPPL-OH; N-terminus and C-terminus assumed) | – | – | –
16 | 2530 | CC(C)C[C@H](NC(=O)[C@@H]1CCCN1C(=O)[C@@H](N)CCCNC(=N)N)C(=O)N[C@@H](CCC(N)=O)C(=O)N[C@H](C(=O)N[C@@H](Cc1c[nH]cn1)C(=O)N[C@H](C(=O)N[C@@H](CC(C)C)C(=O)N1CCC[C@H]1C(=O)N[C@@H](CCC(=O)O)C(=O)O)C(C)C)[C@@H](C)O (H-RPLQTHVLPE-OH; N-terminus and C-terminus assumed) | – | – | –
17 | 826 | CC(C)C[C@H](NC(=O)[C@H](CC(C)C)NC(=O)[C@H](Cc1c[nH]cn1)NC(=O)CNC(=O)[C@H](CCC(N)=O)NC(=O)[C@H](CC(N)=O)NC(=O)[C@H](CCC(N)=O)NC(=O)[C@@H](NC(=O)[C@@H](N)CCCNC(=N)N)C(C)C)C(=O)O (H-RVQNQGHLL-OH; N-terminus and C-terminus assumed) | – | – | –
18 | 2110 | CC(C)C[C@H](NC(=O)[C@H](CC(=O)O)NC(=O)[C@H](Cc1ccccc1)NC(=O)[C@@H]1CCCN1C(=O)[C@@H](NC(=O)[C@H](C)NC(=O)[C@@H]1CCCN1C(=O)[C@@H](N)C(C)C)C(C)C)C(=O)N[C@@H](Cc1c[nH]cn1)C(=O)N[C@@H](Cc1ccccc1)C(=O)O (H-VPAVPFDLHF-OH; N-terminus and C-terminus assumed) | – | – | –
19 | 27.9 | CSCC[C@H](NC(=O)[C@H](CCC(=O)O)NC(=O)[C@H](CC(C)C)NC(=O)[C@H](CC(C)C)NC(=O)[C@H](CC(C)C)NC(=O)CNC(=O)[C@H](Cc1ccc(O)cc1)NC(=O)[C@H](CC(C)C)NC(=O)[C@@H]1CCCN1C(=O)[C@@H](N)C(C)C)C(=O)O (H-VPLYGLLLEM-OH; N-terminus and C-terminus assumed) | – | – | –
20 | – | CC[C@H](C)[C@H](NC(=O)[C@H](CC(=O)O)NC(=O)[C@H](Cc1ccccc1)NC(=O)[C@H](CC(C)C)NC(=O)[C@@H](NC(=O)[C@H](CCC(=O)O)NC(=O)[C@@H](NC(=O)[C@H](CCSC)NC(=O)[C@@H](N)Cc1c[nH]c2ccccc12)[C@@H](C)O)[C@@H](C)O)C(=O)O (H-WMTETLFDI-OH; N-terminus and C-terminus assumed) | 14 | 4 | IC50 (HLA-A24.02): 713 nM
21 | 79.5 | CC(C)C[C@H](NC(=O)CNC(=O)[C@H](CO)NC(=O)[C@H](CC(=O)O)NC(=O)[C@H](CCCCN)NC(=O)[C@H](CO)NC(=O)[C@H](Cc1ccc(O)cc1)NC(=O)[C@H](C)NC(=O)[C@@H]1CCCN1C(=O)[C@@H](N)Cc1ccc(O)cc1)C(=O)O (H-YPAYSKDSGL-OH; N-terminus and C-terminus assumed) | – | – | –
22 | 1330 | CC(C)C[C@H](NC(=O)[C@H](C)NC(=O)[C@H](CC(C)C)NC(=O)[C@H](Cc1c[nH]cn1)NC(=O)[C@@H]1CCCN1C(=O)[C@H](CCC(=O)O)NC(=O)[C@@H]1CCCN1C(=O)[C@H](CC(C)C)NC(=O)[C@@H](NC(=O)[C@@H](N)Cc1c[nH]cn1)C(C)C)C(=O)O [HVLPEPHLAL] (H-HVLPEPHLAL-OH; N-terminus and C-terminus assumed) | – | – | –
